Laboratory results: ChEMBL document CHEMBL1201862, “PubChem BioAssay data set” (2004)
Structures can show the parent of a compound that is named as a salt. Active and inactive are the calls of the source. Rule as the data show it, for most assays here: actives have a measured EC50 and inactives only a lower limit.

Key:
[1] = insulin promoter down-regulators in MIN6 cells, imaging, high-content screening, mouse beta cells (AID 1628); assay type: functional
BJ [2] = assay: cytotoxicity toward BJ-TERT fibroblasts, dose response, cell-based, RAS-independent, luminescence (AID 1933); assay type: functional; settings: Homo sapiens
[3] = cytotoxicity in MIN6 insulinoma cells, dose response, cytotoxicity control, cell-based, mouse insulinoma (AID 2122); assay type: functional;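 also: confirmatory high-throughput counterscreen run to flag cytotoxic compounds; mouse MIN-6 beta cells carrying an insulin promoter eGFP reporter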
BJ [4] = assay: cells; assay type: functional, cell-based; settings: Homo sapiens
BJ [5] = assay: cytotoxicity toward BJ-TERT-LT-ST fibroblasts, dose response, cell-based, RAS-independent, luminescence (AID 1935); assay type: functional; settings: Homo sapiens;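 also: BJ fibroblasts immortalized with TERT plus LT and ST oncogenes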
[6] = cytotoxicity toward DRD oncogenic fibroblasts, dose response, cell-based, non-viral oncogenic, luminescence (AID 1934); assay type: functional; settings: Homo sapiens
BJ [7] = assay: cytotoxicity toward Ras-transformed BJeLR fibroblasts, dose response, cell-based, alamar blue fluorescence, cherrypicked samples (AID 2631); assay type: functional; settings: Homo sapiens;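 also: confirmatory dose-response assay in RAS-dependent BJ fibroblasts engineered with TERT, LT and ST, with cytotoxicity read by fluorescence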
INS1 = assay: beta cell apoptosis inhibitors, cytokine rescue, dose response, luminescence, retest (AID 449756); assay type: functional, cell-based; settings: Rattus norvegicus;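 also: cell death triggered by IL-1 beta plus TNF-alpha plus IFN-gamma mixture; protective hits raise ATP signal compared with cytokine alone wells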
[8] = NIH-3T3 fibroblast cytotoxicity, dose response, cytotoxicity control, cell-based, fluorescence, Alamar Blue, secondary assay (AID 2327); assay type: functional;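 also: NIH-3T3 mouse fibroblasts cultured with fluconazole at 8 µg/mL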
[9] = inhibitors of firefly luciferase expression or activity, dose response, H4 neuroglioma cells, luminescence (AID 1990); assay type: functional, cell-based
cells [10] = assay type: functional, cell-based
[11] = Luminescence Cell-Based Dose Response HTS to Identify Inhibitors of 5'UTR Stem-Loop Driven Prion Protein mRNA Translation in H4 Neuroglioblastoma Cells. [Related pubchem assays: 1827 (Project Summary), 1813 (Primary HTS)]; assay type: functional
[12] = inhibitors of SNCA 5'UTR-driven reporter translation, confirmation, H4 neuroglioma cells, luminescence (AID 1988); assay type: functional, cell-based
cells [13] = assay type: functional, cell-based; remark: listed apart in the source
HEK293 = assay: inhibitors of LMP1-driven NF-kB reporter, dose response, cell-based, HEK293, luciferase, cherry-pick (AID 588343); assay type: functional; settings: Homo sapiens
[14] = biological target: T1, Long-chain-fatty-acid--AMP ligase FadD28 (Mycobacterium tuberculosis, UniProt P9WQ59); assay: Fluorescence polarization aasay to screen for inhibitors that compete for the binding of FadD28 to a bisubstrate Measured in Biochemical System Using Plate Reader - 2147-01_Inhibitor_Dose_CherryPick_Activity.; assay type: functional, Mycobacterium tuberculosis H37Rv
T1 sequence (P9WQ59 whole entry): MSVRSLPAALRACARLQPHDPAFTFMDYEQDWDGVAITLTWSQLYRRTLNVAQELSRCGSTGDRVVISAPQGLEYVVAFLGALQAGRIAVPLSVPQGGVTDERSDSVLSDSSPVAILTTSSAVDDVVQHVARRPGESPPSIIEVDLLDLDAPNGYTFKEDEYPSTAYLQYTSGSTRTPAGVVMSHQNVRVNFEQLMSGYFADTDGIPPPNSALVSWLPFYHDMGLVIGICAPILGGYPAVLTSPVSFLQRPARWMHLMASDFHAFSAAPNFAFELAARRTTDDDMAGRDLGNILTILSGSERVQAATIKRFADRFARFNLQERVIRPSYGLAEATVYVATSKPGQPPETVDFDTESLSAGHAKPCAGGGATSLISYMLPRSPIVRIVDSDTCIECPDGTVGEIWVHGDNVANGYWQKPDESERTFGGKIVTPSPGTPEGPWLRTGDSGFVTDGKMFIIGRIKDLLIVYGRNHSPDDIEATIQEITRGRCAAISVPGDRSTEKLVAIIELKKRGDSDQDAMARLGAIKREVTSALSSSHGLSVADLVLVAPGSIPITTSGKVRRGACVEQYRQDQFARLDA

[15] = biological target: T2, Heat shock factor protein 1 (Mus musculus, UniProt P38532); assay: HSF1 potentiators in luciferase reporter cells, confirmation, cell-based, NIH3T3, luminescence, dose retest (AID 435004); assay type: functional;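 also: stress induced by proteasome inhibitor MG132 added 30 min after compound; luciferase reporter driven by HSF1 response element in NIH3T3 cells; actives raise luminescence as potentiators of the MG132 stress response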
T2 sequence (P38532 whole entry): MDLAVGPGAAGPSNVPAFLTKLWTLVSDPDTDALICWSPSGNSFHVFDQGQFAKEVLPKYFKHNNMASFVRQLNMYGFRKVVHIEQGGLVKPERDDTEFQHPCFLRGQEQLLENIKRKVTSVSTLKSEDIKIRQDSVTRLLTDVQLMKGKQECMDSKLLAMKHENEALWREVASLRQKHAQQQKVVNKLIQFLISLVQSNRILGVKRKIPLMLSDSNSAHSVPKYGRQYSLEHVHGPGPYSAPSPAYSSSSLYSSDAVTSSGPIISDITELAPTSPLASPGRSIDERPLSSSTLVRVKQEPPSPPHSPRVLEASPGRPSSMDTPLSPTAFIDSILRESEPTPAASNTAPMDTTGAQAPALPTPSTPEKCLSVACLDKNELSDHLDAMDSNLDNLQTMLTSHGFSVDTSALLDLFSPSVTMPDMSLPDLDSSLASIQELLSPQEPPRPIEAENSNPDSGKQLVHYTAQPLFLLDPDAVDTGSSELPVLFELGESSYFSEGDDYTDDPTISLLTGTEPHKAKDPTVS

[16] = biological target: Voltage-gated inwardly rectifying potassium channel KCNH2 (Homo sapiens, UniProt Q12809); settings: Potency;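 also: confirmatory quantitative high-throughput screen measuring inhibition of hERG channel activity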
Voltage-gated inwardly rectifying potassium channel KCNH2, sequence (Q12809 whole entry): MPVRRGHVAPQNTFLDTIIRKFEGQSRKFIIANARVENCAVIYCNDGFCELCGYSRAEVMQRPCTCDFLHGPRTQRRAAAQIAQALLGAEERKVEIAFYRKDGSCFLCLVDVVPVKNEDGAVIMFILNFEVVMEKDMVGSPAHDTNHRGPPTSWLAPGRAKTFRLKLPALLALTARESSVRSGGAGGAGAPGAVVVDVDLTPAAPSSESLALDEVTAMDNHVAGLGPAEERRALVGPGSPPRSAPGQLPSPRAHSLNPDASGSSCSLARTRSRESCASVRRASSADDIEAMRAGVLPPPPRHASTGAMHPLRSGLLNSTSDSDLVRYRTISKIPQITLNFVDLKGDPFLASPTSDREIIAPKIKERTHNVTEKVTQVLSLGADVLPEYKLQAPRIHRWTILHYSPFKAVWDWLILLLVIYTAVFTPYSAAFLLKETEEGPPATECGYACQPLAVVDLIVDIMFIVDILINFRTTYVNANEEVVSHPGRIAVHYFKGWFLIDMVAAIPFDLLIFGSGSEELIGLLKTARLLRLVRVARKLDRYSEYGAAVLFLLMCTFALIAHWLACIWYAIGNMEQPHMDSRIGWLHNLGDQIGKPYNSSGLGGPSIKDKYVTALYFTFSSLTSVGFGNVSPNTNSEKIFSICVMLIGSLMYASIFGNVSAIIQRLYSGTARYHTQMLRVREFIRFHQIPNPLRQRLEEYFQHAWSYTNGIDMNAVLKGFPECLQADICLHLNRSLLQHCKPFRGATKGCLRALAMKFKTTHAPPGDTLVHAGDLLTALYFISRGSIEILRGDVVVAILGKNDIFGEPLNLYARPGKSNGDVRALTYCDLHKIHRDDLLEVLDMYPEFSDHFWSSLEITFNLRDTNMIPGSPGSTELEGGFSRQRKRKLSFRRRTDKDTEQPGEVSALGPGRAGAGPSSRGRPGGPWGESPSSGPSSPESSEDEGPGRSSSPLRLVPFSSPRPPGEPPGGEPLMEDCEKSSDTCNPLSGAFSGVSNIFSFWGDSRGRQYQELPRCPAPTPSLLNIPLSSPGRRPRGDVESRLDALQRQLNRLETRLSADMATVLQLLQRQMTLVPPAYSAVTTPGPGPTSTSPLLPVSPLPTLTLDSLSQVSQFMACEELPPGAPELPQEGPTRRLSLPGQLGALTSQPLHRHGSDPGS

| Structure (SMILES) | IC50 [1] | EC50 (BJ [2]) | IC50 [3] | EC50 (BJ [4]) | EC50 (BJ [5]) | EC50 [6] | EC50 (BJ [7]) | AC50 (INS1) | EC50 [8] | EC50 [9] | EC50 (cells [10]) | EC50 [11] | EC50 [12] | EC50 (cells [13]) | AC50 (HEK293) | AC50 [14] | EC50 [15] | AC50 [16] |
| --- | --- | --- | --- | --- | --- | --- | --- | --- | --- | --- | --- | --- | --- | --- | --- | --- | --- | --- |
| CC(Oc1ccc(Cl)cc1Cl)c1nc(-c2ccc(NC(=O)c3cccnc3)cc2)no1 (centres undefined) | 0.88 µM (active) | > 150 µM (not active) | 0.928 µM (active) | 3.32 µM (active) | > 150 µM (not active) | 25.4 µM (active) | > 66.7 µM (inactive) | 0.61 µM (active) | – | – | – | – | – | – | – | – | – | – |
| CCN(CC)c1ccc(/C=N/NC(=O)c2ccc3[nH]cnc3c2)c(O)c1 | – | 4.19 µM (active) | – | 7.44 µM (inconclusive) | 9.27 µM (active) | 4.54 µM (active) | 0.944 µM (active) | 0.827 µM (active) | 6.84 µM (active) | 3.35 µM (active) | 8.39 µM (active) | 4.29 µM (active) | 7.51 µM (active) | > 350 µM (not active) | 7.07 µM (active) | 13.1 µM (active) | – | – |
| COc1cccc(OC)c1OCCNCC1COc2ccccc2O1 (centres undefined) [2- (2,6-DIMETHOXYPHENOXYETHYL)AMINOMETHYL-1,4-BENZODIOXANE HYDROCHLORIDE (WB 4101)] | – | – | – | – | – | – | – | – | – | – | – | – | – | – | – | – | > 260 µM (inactive) | 11.2 µM (inconclusive) |
